Results as given in PMC4941420, “A Rational Approach for the Identification of Non-Hydroxamate HDAC6-Selective Inhibitors” (Scientific Reports, 2016).

How the values were obtained:
[1] = tested on: HEK 293 cells; assay: Cytotoxicity XTT, HEK 293; format: cell-based; details: 72 h, mean ± SD of 3 independent experiments in triplicate, read-out: cytotoxic IC50 HEK 293
Protocol: (§1) HeLa and HEK 293 cells (ATCC CRL-1573) were cultured as described above and seeded into 96-well plates at 400 cells/well. Test and standard compounds were added to plate wells in triplicate (0.05% DMSO in culture medium) in a range of six concentrations. Following 72 h of incubation, […] of an activated XTT solution was added to the cells (1 mg/mL). The absorbance was measured at 450 nm after 2 h incubation at 37 °C. The growth of the compound-treated cells was compared with the growth of vehicle-treated control cells. IC50 values were calculated with GraphPad Prism 6.0.

[2] = tested on: HeLa cells; assay: Cytotoxicity XTT, HeLa; format: cell-based, human; details: 72 h, mean ± SD of 3 independent experiments in triplicate, read-out: cytotoxic IC50 HeLa
Protocol: as §1

[3] = Cytotoxicity XTT, HEK 293; format: cell-based; details: human, HEK 293 cells (ATCC CRL-1573), mean ± SD of 3 independent experiments in triplicate, read-out: cytotoxic IC50 HEK 293
Protocol: as §1

[4] = tested on: α-tubulin acetylation in HeLa cells; assay: Acetyl-α-tubulin sandwich ELISA in HeLa cells; format: cell-based, human; details: 25 μM, 48 h
Protocol: The acetyl-α-tubulin sandwich ELISA Kit (Pathscan® #7204, Cell Signalling) was used to determine tubulin acetylation levels, and Western blotting was used to evaluate histone H4 acetylation, both methods applied to lysates of treated and non-treated HeLa cells (ATCC CCL-2). Cells were cultured in DMEM medium, 4.5 g/L glucose, L-glutamine (Invitrogen), supplemented with 10% heat-inactivated fetal bovine serum (FBS, Biowest), 100 units/mL penicillin, and 100 μg/mL streptomycin, and 1% non-essential amino acids (Invitrogen) at 37 °C with 5% CO2. Prior to ELISA experiments, cells were seeded into 6-well plates at 150,000 cells/well and transfected with the HDAC6-GFP construct (pEGFP.N1-HDAC6, Addgene)[58], using the Lipofectamine 2000 reagent (Invitrogen). Cells were then treated with test compounds, standards or vehicle (0.5% DMSO in culture medium) for 48 h. After the incubation time, cells were washed with cold DPBS (Invitrogen) and lysates were obtained by recovering cells in cold lysis buffer provided in the ELISA kit, supplemented with a protease inhibitor tablet (SigmaFast, Sigma Aldrich). Briefly, cells were harvested in DPBS and centrifuged. The cell pellet was suspended in 100 μL lysis buffer, vortexed, and kept on melting ice for 30 min. Lysates were then obtained by recovering the supernatant after a centrifugation step of 10 min at 11,000 g, 4 °C. Protein concentration was determined by fluorimetry using the Qubit protein assay kit (Invitrogen). Cell lysates were tested at 1 mg/mL following the instructions provided by the ELISA kit manufacturer. For the Western blotting, cells were seeded into 100 mm Petri dishes and treated for 6 h. After the incubation time, cells were washed with cold DPBS (Invitrogen) supplemented with a protease inhibitor tablet (Sigma Fast, Sigma Aldrich), and lysates were obtained by recovering cells in 100 μL cold lysis buffer (10 mM Hepes pH 7.9, 1.5 mM MgCl2, 10 mM KCl, 0.5 mM DTT, 1.5 mM PMSF, 0.2M HCl) the same way as described above. […]

[5] = Cytotoxicity XTT, HeLa; format: cell-based, human; details: human, HeLa cells, mean ± SD of 3 independent experiments in triplicate, read-out: cytotoxic IC50 HeLa
Protocol: as §1

[6] = tested on: HDAC6; details: cited from earlier work

**Q.** What does the source list for `CC(/C=C/C(=O)NO)=C\[C@@H](C)C(=O)c1ccc(N(C)C)cc1` [Trichostatin A]?
**A.** IC50 [1]: 0.3 ± 0.02 µM; IC50 [2]: 1.5 ± 0.3 µM

**Q.** What does the source list for `CN1CCc2c(c3ccccc3n2Cc2ccc(C(=O)NO)cc2)C1` [Tubastatin A]?
**A.** IC50 at 72 h [3]: 2.4 ± 0.6 µM; tubulin acetylation [4]: able to induce tubulin acetylation; IC50 at 72 h [5]: 11.2 ± 0.4 µM; IC50 [6]: […]
